Test results as given in patent publication US20100016371A1, “Indole Compounds” (Glaxo Group Limited, priority 2006, published 2010).
pIC50: −log10 of the molar value.

Columns and labels:
[1] = target: T1, human prostanoid EP1 receptor (Homo sapiens, UniProt P34995); test: Binding assay for the human prostanoid EP1 receptor (competition with [3H]-PGE2); details: [3H]-PGE2 competition, CHO-K1 cell membranes; averages of a number of experiments
T1 construct: expressed in transfected cells; host or cells: CHO-K1 cells, membrane fraction
T1 sequence (P34995 1-402): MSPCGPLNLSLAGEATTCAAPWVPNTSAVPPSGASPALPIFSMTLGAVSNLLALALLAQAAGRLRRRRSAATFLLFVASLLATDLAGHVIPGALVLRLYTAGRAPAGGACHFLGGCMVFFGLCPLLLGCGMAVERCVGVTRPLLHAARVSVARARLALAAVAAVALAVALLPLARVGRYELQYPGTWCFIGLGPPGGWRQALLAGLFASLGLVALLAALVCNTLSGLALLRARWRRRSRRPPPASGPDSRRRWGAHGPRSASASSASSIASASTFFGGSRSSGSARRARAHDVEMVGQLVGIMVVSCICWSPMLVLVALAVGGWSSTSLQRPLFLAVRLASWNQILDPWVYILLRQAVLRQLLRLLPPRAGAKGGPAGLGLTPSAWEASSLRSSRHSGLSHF
Experimental: Binding Assay for the Human Prostanoid EP1 Receptor
Competition assay using [^3H]-PGE2
Compound potencies are determined using a radioligand binding assay. In this assay compound potencies are determined from their ability to compete with tritiated prostaglandin E2 ([^3H]-PGE2) for binding to the human EP1 receptor.
This assay utilises Chinese hamster ovary-K1 (CHO-K1) cells into which a stable vector containing the EP1 cDNA has previously been transfected. Cells are cultured in suitable flasks containing culture medium such as DMEM:F-12 supplemented with 10% v/v foetal calf serum, 2 mM L-glutamine, 0.25 mg/ml geneticin, […] puromycin and 10 μM indomethacin.
Cells are detached from the culture flasks by incubation in calcium and magnesium free phosphate buffered saline containing 1 mM disodium ethylenediaminetetraacetic acid (Na2EDTA) and 10 μM indomethacin for 5 min. The cells are isolated by centrifugation at 250×g for 5 mins and suspended in an ice cold buffer such as 50 mM Tris, 1 mM Na2EDTA, 140 mM NaCl, 10 μM indomethacin (pH 7.4). The cells are homogenised using a Polytron tissue disrupter (2×10s burst at full setting), centrifuged at 48,000×g for 20 mins and the pellet containing the membrane fraction is washed (optional) three times by suspension and centrifugation at 48,000×g for 20 mins. The final membrane pellet is suspended in an assay buffer such as 10 mM 2-[N-morpholino]ethanesulphonic acid, 1 mM Na2EDTA,10 mM MgCl2 (pH 6). Aliquots are frozen at −80° C. until required.
For the binding assay the cell membranes, competing compounds and [^3H]-PGE2 (3 nM final assay concentrations are incubated in a final volume of 100 μl for 30 min at 30° C. All reagents are prepared in assay buffer. Reactions are terminated by rapid vacuum filtration over GF/B filters using a Brandell cell harvester. The filters are washed with ice cold assay buffer, dried and the radioactivity retained on the filters is measured by liquid scintillation counting in Packard TopCount scintillation counter.
The data are analysed using non linear curve fitting techniques to determine the concentration of compound producing 50% inhibition of specific binding (IC50).

human EP1 receptor = target: T2, human EP1 receptor (Homo sapiens, UniProt P34995); test: human EP1 calcium mobilisation assay (FLIPR, CHO-K1 cells); assay type: cell-based; details: antagonism of PGE2-induced calcium mobilisation, CHO-K1 cells expressing EP1; averages of a number of experiments; read-out: functional pKi (converted)
T2 construct: expressed in transfected cells; host or cells: CHO-K1 cells, pCIN vector
T2 sequence (P34995 1-402): T1 sequence (P34995 1-402)
Experimental: (§1) Biological Activity at EP1 and EP3 Receptors
(§2) Briefly, the antagonist properties of compounds are assessed by their ability to inhibit the mobilisation of intracellular calcium ([Ca^2+]i) in response to activation of EP1 or EP3 receptors by the natural agonist hormone prostaglandin E2 (PGE2). Increasing concentrations of antagonist reduce the amount of calcium that a given concentration of PGE2 can mobilise. The net effect is to displace the PGE2 concentration-effect curve to higher concentrations of PGE2. The amount of calcium produced is assessed using a calcium-sensitive fluorescent dye such as Fluo-4, AM and a suitable instrument such as a Fluorimetric Imaging Plate Reader (FLIPR). Increasing amounts of [Ca^2+]i produced by receptor activation increase the amount of fluorescence produced by the dye and give rise to an increasing signal. The signal may be detected using the FLIPR instrument and the data generated may be analysed with suitable curve-fitting software.
The human EP1 or EP3 calcium mobilisation assay (hereafter referred to as ‘the calcium assay’) utilises Chinese hamster ovary-K1 (CHO-K1) cells into which a stable (pCIN; BioTechniques 20(1996): 102-110) vector containing either EP1 or EP3 cDNA has previously been transfected. Cells are cultured in suitable flasks containing culture medium such as DMEM:F-12 supplemented with 10% v/v foetal calf serum, 2 mM L-glutamine, 0.25 mg/ml geneticin, 100 μM flurbiprofen and 10 μg/ml puromycin.
For assay, cells are harvested using a proprietary reagent that dislodges cells such as Versene. Cells are re-suspended in a suitable quantity of fresh culture media for introduction into a 384-well plate. Following incubation for 24 hours at 37° C. the culture media is replaced with a medium containing Fluo-4 and the detergent pluronic acid, and a further incubation takes place. Concentrations of compounds are then added to the plate in order to construct concentration-effect curves. This may be performed on the FLIPR in order to assess the agonist properties of the compounds. Concentrations of PGE2 are then added to the plate in order to assess the antagonist properties of the compounds.
The data so generated may be analysed by means of a computerised curve-fitting routine. The concentration of compound that elicits a half-maximal inhibition of the calcium mobilisation induced by PGE2 (pIC50) may then be estimated.

human EP3 receptor = target: T3, human EP3 receptor (Homo sapiens, UniProt P43115); test: human EP3 calcium mobilisation assay (FLIPR, CHO-K1 cells); assay type: cell-based; details: antagonism of PGE2-induced calcium mobilisation, CHO-K1 cells expressing EP3; averages of a number of experiments; read-out: functional pKi (converted)
T3 construct: expressed in transfected cells; host or cells: CHO-K1 cells, pCIN vector
T3 sequence (P43115 1-390): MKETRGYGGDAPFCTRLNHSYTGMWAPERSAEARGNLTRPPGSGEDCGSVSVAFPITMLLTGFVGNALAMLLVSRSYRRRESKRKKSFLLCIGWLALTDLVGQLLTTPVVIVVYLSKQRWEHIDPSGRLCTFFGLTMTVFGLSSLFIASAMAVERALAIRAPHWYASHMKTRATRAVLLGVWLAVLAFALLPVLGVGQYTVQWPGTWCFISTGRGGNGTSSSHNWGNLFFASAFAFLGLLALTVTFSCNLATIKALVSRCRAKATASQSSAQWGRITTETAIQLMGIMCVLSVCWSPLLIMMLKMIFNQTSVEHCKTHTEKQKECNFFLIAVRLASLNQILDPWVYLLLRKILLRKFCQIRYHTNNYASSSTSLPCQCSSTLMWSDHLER
Experimental: as §1
as §2, with “software. […]” for “software.”
For assay, cells are harvested using a proprietary reagent that dislodges cells such as Versene. Cells are re-suspended in a suitable quantity of fresh culture media for introduction into a 384-well plate. […]
The data so generated may be analysed by means of a computerised curve-fitting routine. […]

Structure (SMILES) | pIC50 [1] | Ki (human EP1 receptor) | Ki (human EP3 receptor)
CC(C)C(=O)c1cn(-c2nc(C(=O)O)cs2)c2cc(Cl)ccc12 [Example 7, 2-[6-Chloro-3-(2-methylpropanoyl)-1H-indol-1-yl]-1,3-thiazole-4-carboxylic acid] |  | ≤ 100 nM | ≥ 2000 nM
O=C(O)c1csc(-n2cc(Cc3ccccc3)c3ccc(Cl)cc32)n1 [Example 8, 2-[6-Chloro-3-(phenylmethyl)-1H-indol-1-yl]-1,3-thiazole-4-carboxylic acid] |  | ≤ 100 nM | 
CC(C)Cc1cn(-c2nc(C(=O)O)cs2)c2ccccc12 [Example 10, 2-[3-(2-Methylpropyl)-1H-indol-1-yl]-1,3-thiazole-4-carboxylic acid] |  | ≤ 100 nM | 
CC(C)Cc1cn(-c2nc(CC(=O)O)cs2)c2cc(Cl)ccc12 [Example 15, {2-[6-Chloro-3-(2-methylpropyl)-1H-indol-1-yl]-1,3-thiazol-4-yl}acetic acid] |  | ≤ 100 nM | 
CC(C)Cc1cn(-c2cccc(C(=O)O)n2)c2cc(Cl)ccc12 [Example 19, 6-[6-Chloro-3-(2-methylpropyl)-1H-indol-1-yl]-2-pyridinecarboxylic acid] | ≥ 7.00 | ≤ 100 nM | 
CCc1cn(-c2nc(C(=O)O)cs2)c2cc(Cl)ccc12 [Example 20, 2-(6-Chloro-3-ethyl-1H-indol-1-yl)-1,3-thiazole-4-carboxylic acid] |  | ≤ 100 nM | ≥ 2000 nM
CC(C)Cc1cn(-c2ncc(C(=O)O)s2)c2cc(Cl)ccc12 [Example 21, 2-[6-Chloro-3-(2-methylpropyl)-1H-indol-1-yl]-1,3-thiazole-5-carboxylic acid] | ≥ 7.00 | ≤ 100 nM | 
CC(C)Cc1cn(-c2ccc(C(=O)O)s2)c2cc(Cl)ccc12 [Example 22, 5-[6-Chloro-3-(2-methylpropyl)-1H-indol-1-yl]-2-thiophenecarboxylic acid] | ≥ 7.00 | ≤ 100 nM | 
CC(C)Cc1cn(-c2nc(C(=O)NS(=O)(=O)c3ccccc3)cs2)c2cc(Cl)ccc12 [Example 23, 2-[6-Chloro-3-(2-methylpropyl)-1H-indol-1-yl]-N-(phenylsulfonyl)-1,3-thiazole-4-carboxamide] | ≥ 7.00 | ≤ 100 nM | 
Cc1ccc2c(CC(C)C)cn(-c3nc(C(=O)O)cs3)c2c1 [Example 24] | ≥ 7.00 | ≤ 100 nM | 

Further lines, results first:

pIC50 [1] | Ki (human EP1 receptor) | Ki (human EP3 receptor) | Structure (SMILES)
≥ 7.00 | ≤ 100 nM |  | CCCc1cn(-c2nc(C(=O)O)cs2)c2cc(Cl)ccc12 [Example 1, 2-(6-Chloro-3-propyl-1H-indol-1-yl)-1,3-thiazole-4-carboxylic acid]
≥ 7.00 | ≤ 100 nM |  | CC(C)(C)CCc1cn(-c2nc(C(=O)O)cs2)c2cc(Cl)ccc12 [Example 2, 2-[6-Chloro-3-(3,3-dimethylbutyl)-1H-indol-1-yl]-1,3-thiazole-4-carboxylic acid]
≥ 7.00 | ≤ 100 nM |  | CC(C)c1cn(-c2nc(C(=O)O)cs2)c2cc(Cl)ccc12 [Example 3, 2-[6-Chloro-3-(1-methylethyl)-1H-indol-1-yl]-1,3-thiazole-4-carboxylic acid]
≥ 7.00 | ≤ 100 nM |  | CC(C)Cc1cn(-c2nc(C(=O)O)cs2)c2cc(Br)ccc12 [Example 4, 2-[6-Bromo-3-(2-methylpropyl)-1H-indol-1-yl]-1,3-thiazole-4-carboxylic acid]
≥ 7.00 | ≤ 100 nM |  | CC(C)Cc1cn(-c2nc(C(=O)O)co2)c2cc(Cl)ccc12 [Example 5, 2-[6-Chloro-3-(2-methylpropyl)-1H-indol-1-yl]-1,3-oxazole-4-carboxylic acid]
≥ 7.00 | ≤ 100 nM |  | CC(C)Cc1cn(Cc2nc(C(=O)O)cs2)c2cc(Cl)ccc12 [Example 6, 2-{[6-Chloro-3-(2-methylpropyl)-1H-indol-1-yl]methyl}-1,3-thiazole-4-carboxylic acid]
≥ 7.00 | ≤ 100 nM |  | CC(C)Cc1nn(-c2nc(C(=O)O)cs2)c2cc(Cl)ccc12 [Example 11, 2-[6-Chloro-3-(2-methylpropyl)-1H-indazol-1-yl]-1,3-thiazole-4-carboxylic acid]
≥ 7.00 | ≤ 100 nM |  | CC(C)(C)Cc1cn(-c2nc(C(=O)O)cs2)c2cc(Cl)ccc12 [Example 12, 2-[6-Chloro-3-(2,2-dimethylpropyl)-1H-indol-1-yl]-1,3-thiazole-4-carboxylic acid]
≥ 7.00 | ≤ 100 nM |  | CC(C)Cc1cn(-c2nc(C(=O)O)cs2)c2cc(C(F)(F)F)ccc12 [Example 13, 2-[3-(2-Methylpropyl)-6-(trifluoromethyl)-1H-indol-1-yl]-1,3-thiazole-4-carboxylic acid]
≥ 7.00 | ≤ 100 nM |  | CC(C)Cc1cn(-c2nc(C(=O)O)cs2)c2cc(F)ccc12 [Example 16, 2-[6-Fluoro-3-(2-methylpropyl)-1H-indol-1-yl]-1,3-thiazole-4-carboxylic acid]
≥ 7.00 | ≤ 100 nM |  | CC(C)Cc1cn(-c2nc(C(=O)O)cs2)c2cc(Cl)ccc12 [Example 17, 2-[6-Chloro-3-(2-methylpropyl)-1H-indol-1-yl]-1,3-thiazole-4-carboxylic acid]
≥ 7.00 | ≤ 100 nM |  | CC(C)Cc1cn(-c2ccc(C(=O)O)o2)c2cc(Cl)ccc12 [Example 18, 5-[6-Chloro-3-(2-methylpropyl)-1H-indol-1-yl]-2-furancarboxylic acid]
